According to patent publication US9650616B2, “Methods for increasing grain yield” (University of Florida Research Foundation, Inc., priority 2014, dated 2017):
Positions count from the first letter of the chain named.

Tests used:
[1] = target: T1, maize endosperm AGPase, large subunit variant D161G (numbering of SEQ ID NO: 20) (Zea mays, UniProt P55241+Q84PF5, D161G); assay: Kinetic constants in the absence of 3-PGA, D161G; assay type: biochemical
T1 sequence (P55241 46-516 D161G): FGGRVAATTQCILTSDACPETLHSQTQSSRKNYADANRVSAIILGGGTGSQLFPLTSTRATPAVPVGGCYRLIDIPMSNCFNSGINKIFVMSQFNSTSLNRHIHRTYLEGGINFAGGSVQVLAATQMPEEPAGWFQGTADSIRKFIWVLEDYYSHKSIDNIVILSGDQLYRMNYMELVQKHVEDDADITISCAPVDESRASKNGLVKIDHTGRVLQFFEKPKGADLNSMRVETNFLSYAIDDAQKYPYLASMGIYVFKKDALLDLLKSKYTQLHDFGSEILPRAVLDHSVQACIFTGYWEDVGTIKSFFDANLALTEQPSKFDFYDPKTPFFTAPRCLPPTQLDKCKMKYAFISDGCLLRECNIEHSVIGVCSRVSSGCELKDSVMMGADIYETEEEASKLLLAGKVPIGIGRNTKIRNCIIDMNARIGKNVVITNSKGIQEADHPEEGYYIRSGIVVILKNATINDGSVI
T1 sequence (Q84PF5 1-474): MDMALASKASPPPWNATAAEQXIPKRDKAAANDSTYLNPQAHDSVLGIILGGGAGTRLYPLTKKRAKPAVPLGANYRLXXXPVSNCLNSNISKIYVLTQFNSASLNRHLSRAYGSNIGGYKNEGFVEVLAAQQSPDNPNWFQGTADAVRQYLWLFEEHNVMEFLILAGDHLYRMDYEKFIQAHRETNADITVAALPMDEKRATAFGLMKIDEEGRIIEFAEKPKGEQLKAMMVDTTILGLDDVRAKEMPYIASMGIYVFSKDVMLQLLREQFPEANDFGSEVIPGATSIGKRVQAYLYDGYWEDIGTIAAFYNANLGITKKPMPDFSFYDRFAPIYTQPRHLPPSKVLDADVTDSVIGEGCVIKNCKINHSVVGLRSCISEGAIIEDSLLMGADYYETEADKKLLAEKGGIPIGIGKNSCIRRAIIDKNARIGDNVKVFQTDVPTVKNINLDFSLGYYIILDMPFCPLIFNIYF
Experimental: Reactions were performed for 10 min and terminated by boiling. Blank mixtures contained everything except ATP.
Based on the kinetic results (Table 10) and catalytic properties at 55° C. (Table 10) both D161G and GGR were selected for a more detailed kinetic analysis. […] The GGR mutant was primarily chosen based on its increased catalytic rate at 37° C. and high performance at 55° C. Its high activity in the absence of 3-PGA was also paramount. The first kinetic parameters determined were the Michaelis constants, the catalytic rate (kcat) and the dissociation constant (Kia) for the E-ATP complex, in the absence of 3-PGA. […] For the wt maize enzyme, this activator primarily responds by reducing the Km for both substrates, with little effect on the reaction rate (Boehlein et al., 2013). […] The kinetic mechanism established ATP as the first substrate to bind, thus the activator is no longer necessary for this first step. […] This variant also conditions both heat stability and high activity in the absence of an activator.

[2] = target: T2, maize endosperm AGPase, large subunit variant GGR (Q96G, D161G, A443R; numbering of SEQ ID NO: 20) (Zea mays, UniProt P55241+Q84PF5, A443R/D161G/Q96G); assay: Pi inhibition in the presence of 3-PGA, GGR; assay type: biochemical; settings: read-out: Km (ATP), presence of 3-PGA, ATP varied, Pi inhibition, L-MT
T2 sequence (P55241 46-516 A443R/D161G/Q96G): T1 sequence (P55241 46-516 D161G) with Q51G, A398R
T2 sequence (Q84PF5 1-474): T1 sequence (Q84PF5 1-474)
Description: Inhibition by Pi was then followed in the presence of the activator 3-PGA.

[3] = tested on: maize endosperm AGPase, evolutionary mutant SH2-E (SH2E); settings: absence of 3-PGA, ATP varied, Pi inhibition, NC, read-out: Km (ATP); cited from earlier work

## Nc1ncnc2c1ncn2[C@@H]1O[C@H](COP(=O)(O)OP(=O)(O)OP(=O)(O)O)[C@@H](O)[C@H]1O [ATP]
[1]
  decrease of Km for ATP compared to wild-type: ~100 ×
[1]; ATP varied at fixed G-1-P
  kcat: 48.8 s⁻¹
[1]; read-out: ATP Km
  Km: 43 µM
[2]
  Km: 110 µM
[3]
  Km: 970 µM
